The subject of this experiment is capsaicin-induced respiratory effects. The experiment can be described thus: Antagonism of capsaicin aerosol induced respiratory effects in conscious guinea pigs (whole body plethysmography). The experiment is classed as in vivo, guinea pig. The following applies: for DYSPNEA ONSET / MAXIMUM PRESSURE INCREASE (mmH2O) / SRE NUMBER*: mean and SEM; for SRE NUMBER*: number of coughs/gasps during 19 min exposure. The protocol: In vivo experiments were performed using male Duncan Hartley guinea pigs (250-350g). Changes in conscious breathing patterns were monitored in four animals simultaneously using modified whole body plethysmography consisting of four small plexiglass boxes each connected to a reference box via Validyne DP 45-16 differential pressure transducers. The 4 boxes were equipped with an air supply line (also used for aerosol delivery) and an exhaust air line. Supply and exhaust lines were of the same length and narrow bore and arose from a common supply chamber and vented to a common exhaust chamber. This system was used to ensure that fluctuations in supply air and atmospheric pressure would remain in phase and be eliminated from the net signal by the differential pressure transducers. The analog pressure signals were digitalized via a Data Translation DT2821 A to D board. Data were collected at a rate of 100 samples/second/animal. Each cycle of pressure change was analyzed using the following parameters: rising and falling slope determined between minimum and maximum pressures, the ratio of rising over falling slope, and the magnitude of the change between initial trough pressure and peak cycle pressure. Using these values (and observing the animals) the pressure cycles were characterized into normal breaths, forced exhalations (apparent by abdominal heaving), significant respiratory events (SREs; usually coughs, less often sneezes or gasps which were characterized by transient, extremely large pressure increases which were distinguishable from noise) and movement/noise with a PCAT 286 running a System V UNIX operating system. Dyspnea was defined as a significant, sustained increase in plethysmograph pressure which was associated with an observable shift to labored breathing in the animal.
During the course of a typical experiment in which airway responsiveness to various bronchoconstricting agents was examined, aerosols were delivered for 19 min (0.33 ml/min) using a DeVilbiss Ultraneb 99 ultrasonic nebulizer and animals monitored during this time. Prior to nebulization, 1 min of resting breathing was collected to establish a baseline pressure. […] The vehicle for nebulization of all bronchoconstrictive agents was phosphate buffered saline (pH 7.4) which elicited no respiratory effects itself. Putative tachykinin antagonists were administered either (i.v.) 20 min prior to onset of aerosol exposure or orally 1 hour prior to onset (to guinea pigs after an overnight fast).
Capsaicin aerosol is known to promote release of the tachykinins SP and NKA from sensory nerves in the airways of guinea pigs which may then act upon NK1 and NK2 receptors, respectively to elicit respiratory effects. […]
Values are mean and SEM of data derived from number of animals indicated in parenthesis. Putative tachykinin antagonists were administered intravenously 20 min prior to initiation of capsaicin aerosol (0.001%). *SRE number indicates the number of coughs/gasps which occurred during the 19 min capsaicin exposure period.
Values are mean and SEM of data derived from number of animals indicated in parenthesis. Putative tachykinin antagonists were administered by oral gavage 1 hr prior to initiation of capsaicin aerosol (0.001%). *SRE number indicates the number of coughs/gasps which occurred during the 19 min capsaicin exposure period.

Setting [1] is: 10 mg/kg intravenously 20 min prior to capsaicin aerosol (0.001%).
Where [2] appears, read: 25 mg/kg by oral gavage 1 hr prior to capsaicin aerosol (0.001%).
Setting [3] is: 50 mg/kg by oral gavage 1 hr prior to capsaicin aerosol (0.001%).
Setting [4] is: 100 mg/kg by oral gavage 1 hr prior to capsaicin aerosol (0.001%).

Structures can show the parent of a compound that is named as a salt.

With `COc1cc(C(=O)N2CCC(CCN3CCC(C(N)=O)(c4ccccc4)CC3)(c3ccc(Cl)c(Cl)c3)C2)cc(OC)c1OC` (racemic) [Example 3A, 1-[2-[3-(3,4-dichloro-phenyl-3-yl)-1-(3,4,5-trimethoxy-benzoyl)-pyrrolidin-3-yl]-ethyl] -4-phenyl-piperidine-4-carboxylic acid amide hydrochloride], under setting [1], the “DYSPNEA INCIDENCE” value is listed as 89% (7/8), the “DYSPNEA ONSET” value came out at 480 ± 80 s, the “MAXIMUM PRESSURE INCREASE (mmH2O)” value came out at 0.83 ± 0.18 mmH2O and the “SRE NUMBER*” value amounted to 8.50 ± 1.9. Under setting [2], the “DYSPNEA INCIDENCE” value is 80% (8/10), the “DYSPNEA ONSET” value was 424 ± 120 s, the “MAXIMUM PRESSURE INCREASE (mmH2O)” value is 0.7 ± 0.2 mmH2O and the “SRE NUMBER*” value amounted to 4.6 ± 1.0. For the same molecule, under setting [3], the “DYSPNEA INCIDENCE” value is on record as 70% (7/10), the “DYSPNEA ONSET” value turned out to be 434 ± 152 s, the “MAXIMUM PRESSURE INCREASE (mmH2O)” value is 0.4 ± 0.1 mmH2O and the “SRE NUMBER*” value is 2.8 ± 0.8. Besides, under setting [4], the “DYSPNEA INCIDENCE” value is on record as 50% (5/10), the “DYSPNEA ONSET” value worked out at 360 ± 120 s, the “MAXIMUM PRESSURE INCREASE (mmH2O)” value stood at 0.4 ± 0.1 mmH2O and the “SRE NUMBER*” value worked out at 2.1 ± 0.5.

The record behind these values is patent EP0696280B1, “SUBSTITUTED PYRROLIDIN-3-YL-ALKYL-PIPERIDINES USEFUL AS TACHYKININ ANTAGONISTS” (MERRELL PHARMACEUTICALS INC., priority 1993, dated 1994).
